In article PMC10113987, “A tool for nuclear imaging of the SARS-CoV-2 entry receptor: molecular model and preclinical development of ACE2-selective radiopeptides” (EJNMMI Research, 2023):
Like-named read-outs stand apart in the source and are kept apart here. Positions of bridges follow the written chain, without caps; N, C: chain ends. Residues, ends and D or L forms follow the SMILES beside them. *: point of attachment. HBEDCC = O=C(O)CCc1ccc(O)c(CN(CCN(CC(=O)O)Cc2cc(CCC(=O)*)ccc2O)CC(=O)O)c1

Experiments:
[1] = parameters: method as in doi:10.1016/0020-1693(94)04012-5; conditions: cited from earlier work
[2] = system: HEK-ACE2/HEK-ACE-xenografted mice; test: Biodistribution in HEK-ACE2/HEK-ACE xenografted mice; format: in vivo, mouse
Experimental: (§1) All applicable international, national, and/or institutional guidelines for the care and use of animals were followed. In particular, all animal experiments were carried out according to the guidelines of the Swiss Regulations for Animal Welfare. Preclinical studies have been ethically approved by the Cantonal Committee of Animal Experimentation and permitted by the responsible cantonal authorities (License N° 75743). Five-week-old female CD1/nude mice and female immunocompetent FVB mice were obtained from Charles River Laboratories (Sulzfeld, Germany) and fed with standard rodent chow ad libitum. CD1/nude were subcutaneously inoculated with HEK-ACE2 cells (6–8 × 10^6 cells in 100 µL PBS) on the right shoulder and approximately one week later with HEK-ACE (4 × 10^6 cells in 100 µL PBS) on the left shoulder. Imaging and biodistribution studies were performed 2–4 weeks later when the xenografts reached a size of 100–300 mm^3.
Biodistribution studies in xenograft-bearing mice were performed 2–4 weeks after cell inoculation. Mice were intravenously injected with [^67Ga]Ga-DOTA-DX600, [^67Ga]Ga-NODAGA-DX600, [^67Ga]Ga-HBED-CC-DX600 or [^67Ga]Ga-DOTA-BPP9a (3 MBq, 0.5 nmol, 100 µL) diluted in NaCl 0.9% containing 0.05% BSA. The mice were sacrificed 3 h after administration of the radiopeptides. Selected tissues and organs were collected, weighed and counted using a γ-counter. The results were listed as a percentage of the injected activity per gram of tissue mass (% IA/g), using counts of a defined volume of the original injection solution measured simultaneously, resulting in decay-corrected values. Statistical analysis was performed by applying a one‐way ANOVA test with a Tukey’s multiple comparisons post‐test (GraphPad Prism software, version 8.3.1).

FVB mice = test: In vivo stability in immunocompetent FVB mice (TLC of blood plasma, urine, kidneys); parameters: species or system mouse; conditions: 1 h p.i., fraction of accumulated activity
Experimental: In order to investigate the stability of the radiopeptides, the ^67Ga-labeled DX600 peptides (20 MBq/nmol) were tested in immunocompetent FVB mice (10 MBq in 100 μL per mouse). Before sacrificing, blood was collected from each mouse 1 h after injection of the radiopeptides. After centrifugation, the blood plasma was analyzed using reversed phase TLC with citrate buffer (0.1 M, pH 5.5) as a mobile phase. The kidneys were collected and processed to investigate the presence of intact radiopeptides and potential metabolites using the same TLC system. The analysis of the chromatograms was performed as described for the in vitro plasma stability (Additional file 1).
Methods: Immunocompetent FVB mice were injected with the DX600-based radiopeptides (n=2). One hour later, urine was collected and blood was sampled from the retrobulbar vein followed by centrifugation (10 min, 200 rcf). A drop of urine and blood plasma was analyzed using the TLC method described for in vitro stability experiments above (reversed phase as stationary phase and citrate buffer pH 5.5 as mobile phase). The data were also confirmed using normal phase TLC. Kidneys of mice were collected, cut into small pieces, homogenized in 200 μL buffer solution (ice-cold methanol containing 0.025% NH4OH) and centrifuged (5 min, 2300 rcf, 4° C) as described by Boss et al.. An aliquot of the supernatant of each sample was developed using the same TLC method as for urine and blood plasma samples. The TLC plates were exposed to a phosphor screen which was afterwards read using a storage phosphor system (Cyclone Plus, PerkinElmer). The quantification of the signals was carried out using the OptiQuant software (version 5.0, Bright Instrument Co Ltd., PerkinElmer^TM). The obtained chromatograms were analyzed by determination of the peak area of the radiolabeled peptide, the released gallium-67 as well as degradation products of unknown structure. The quantity of the intact product was expressed as percentage of the sum of integrated peak areas of the entire chromatogram.

[3] = In vitro stability in mouse blood plasma (TLC); format: in vitro ADME; conditions: 37 °C
Experimental: (§2) The ^67Ga-labeled DX600-radiopeptides (20 MBq/nmol) were incubated in human and mouse plasma (10 MBq/200 µL), respectively, at 37 °C. Aliquots were taken at variable time points up to 24 h for analysis using reversed phase thin layer chromatography (TLC) with citrate buffer (0.1 M, pH 5.5) as a mobile phase. Images of the TLC plates were obtained using a storage phosphor system (Cyclone Plus, PerkinElmer) and quantified using the OptiQuant software (version 5.0, Bright Instrument Co Ltd., PerkinElmer™) (Supplementary Information).
(§3) The radiopeptides were prepared and TLC experiments were performed immediately after radiolabeling by applying the diluted radiopeptides in saline (1 µL; ~0.05 MBq) and [^67Ga]GaCl3 solution (1 µL; ~0.05 MBq) on the TLC plates. The radiopeptides were incubated in mouse or human plasma (10 MBq/200 µL) at 37° C. TLC was performed with an aliquot of the plasma samples at the given timepoints (30 min, 1 h, 3 h and 24 h). The TLC plates were exposed to a phosphor screen followed by development using a storage phosphor system (Cyclone Plus, PerkinElmer). The quantification of the signals was carried out using the OptiQuant software (version 5.0, Bright Instrument Co Ltd., PerkinElmer^TM). The obtained chromatograms were analyzed by determination of the peak area of the radiolabeled peptide, the released gallium-67 as well as degradation products of unknown structure. The quantity of the intact product was expressed as percentage of the sum of integrated peak areas of the entire chromatogram.

[4] = In vitro stability in human blood plasma (TLC); format: in vitro ADME; conditions: 37 °C, whole incubation period of 24 h
Experimental: as §2, §3

[5] = system: HEK-ACE2/HEK-ACE-xenografted mice; test: SPECT/CT imaging and quantification of retained activity in HEK-ACE2/HEK-ACE xenografted mice; format: in vivo, mouse; conditions: SPECT/CT quantification, non-decay-corrected
Experimental: as §1
SPECT/CT imaging was performed using a four-head, multiplexing, multipinhole small-animal SPECT camera (NanoSPECT/CT™, Mediso Medical Imaging Systems, Budapest, Hungary). Each head was outfitted with a tungsten-based aperture of nine 1.4 mm-diameter pinholes and a thickness of 10 mm. CT scans of 7.5 min duration were followed by SPECT scans of ~ 50 min performed 1 h, 3 h and 24 h after injection of the respective radiopeptide (10 MBq, 0.5 nmol, 100 μL), diluted in NaCl 0.9% containing 0.05% BSA. During the scan, mice were anesthetized with a mixture of isoflurane and oxygen. The images were acquired using Nucline software (version 1.02, Mediso Ltd., Budapest, Hungary). The real-time CT reconstruction used a cone-beam-filtered backprojection. The reconstruction of SPECT data was performed with the HiSPECT software (version 1.4.3049, Scivis GmbH, Göttingen, Germany) using γ-energies of 93.20 keV (± 10%), 184.60 keV (± 10%) and 300.00 keV (± 10%) for gallium-67. All images were prepared using the VivoQuant post-processing software (version 3.0, inviCRO Imaging Services and Software, Boston, US). A Gauss post-reconstruction filter (full width at half maximum, 1 mm) was applied, and the scale of activity for gallium-67 was set as indicated on the SPECT/CT images. In order to estimate the wash-out of the DX600-based radiopeptides from the HEK-ACE2 xenografts and kidneys over time, the absolute amount of activity was determined in these tissues using the VivoQuant quantification tool. The accumulated activity (non-decay-corrected value in MBq) in the xenografts and kidneys, respectively, obtained at the 1 h p.i. timepoint was set as 100%. The percentage of activity retained in these tissues was determined at 3 h and 24 h p.i. based on the absolute activity determined at these timepoints.

[6] = 3 h after i.v. injection, decay-corrected, n = 3

## O=C(O)CCc1ccc(O)c(CN(CCN(CC(=O)O)Cc2cc(CCC(=O)O)ccc2O)CC(=O)O)c1 [HBED-CC, 3-(3-((2-((5-(2-carboxyethyl)-2-hydroxyphenyl)methyl-(carboxymethyl)amino)ethyl-(carboxymethyl)amino)methyl)-4-hydroxyphenyl)propanoic acid]
[1]; Ga^3+
  logK of coordination: 38
[1]; Zn^2+
  logK of coordination: 18

## CC(=O)N[C@@H](CCCCNC(=O)CCc1ccc(O)c(CN(CCN(CC(=O)O)Cc2cc(CCC(=O)O)ccc2O)CC(=O)O)c1)C(=O)NCC(=O)N[C@@H](CC(=O)O)C(=O)N[C@@H](Cc1ccc(O)cc1)C(=O)N[C@@H](CO)C(=O)N[C@@H](Cc1c[nH]cn1)C(=O)N[C@H]1CSSC[C@@H](C(=O)N[C@H](C(=O)N[C@@H](Cc2ccc(O)cc2)C(=O)N2CCC[C@H]2C(=O)N[C@@H](CC(=O)O)C(=O)N2CCC[C@H]2C(=O)N[C@@H](CCC(=O)O)C(=O)NCC(=O)NCC(=O)NCC(N)=O)[C@@H](C)O)NC(=O)[C@H](CCCCN)NC(=O)[C@H](Cc2c[nH]c3ccccc23)NC(=O)[C@H](Cc2c[nH]c3ccccc23)NC(=O)[C@@H]2CCCN2C(=O)[C@H](Cc2ccc(O)cc2)NC(=O)[C@H](Cc2ccc(O)cc2)NC(=O)[C@H](CCCNC(=N)N)NC(=O)[C@H](CC(C)C)NC(=O)[C@@H]2CCCN2C(=O)[C@H](CO)NC1=O [[^67Ga]Ga-HBED-CC-DX600, metal not drawn] (Ac-K(HBEDCC)GDYSHCSPLRYYPWWKCTYPDPEGGG-NH2; disulfide 7-18)
[2]; [6]
  Biodistribution: ACE2 xenograft (HEK-ACE2): 12.3 ± 1.3 % IA/g
  Biodistribution: ACE xenograft (HEK-ACE): < 0.5 % IA/g
  Biodistribution: blood: 0.09 ± 0.04 % IA/g
  Biodistribution: bone: 0.05 ± 0.02 % IA/g
  Biodistribution: heart: 0.07 ± 0.03 % IA/g
  Biodistribution: intestines: 0.43 ± 0.31 % IA/g
  Biodistribution: kidneys (renal retention): 7.2 ± 2.2 % IA/g
  Biodistribution: liver: 0.23 ± 0.16 % IA/g
  Biodistribution: lung: 0.13 ± 0.05 % IA/g
  Biodistribution: muscle: 0.03 ± 0.02 % IA/g
  Biodistribution: salivary glands: 0.05 ± 0.02 % IA/g
  Biodistribution: spleen: 0.06 ± 0.03 % IA/g
  Biodistribution: stomach: 0.09 ± 0.03 % IA/g
[2]; 3 h after i.v. injection, decay-corrected, n = 3, listed as [^67Ga]Ga-HBED-CC- DX600
  Biodistribution: ACE xenograft (HEK-ACE): 0.27 ± 0.33 % IA/g
[2]; 3 h after injection
  HEK-ACE2 xenograft-to-kidney ratio: 1.77 ± 0.34
FVB mice
  Intact radiopeptide in kidney homogenates: > 92%
  Radiometabolites in kidney homogenates: ~ 7.5%
[3]; 3 h
  Intact radiopeptide in mouse blood plasma: 87 ± 2%
[3]; 24 h
  Intact radiopeptide in mouse blood plasma: 29 ± 1%
[4]
  Intact radiopeptide in human blood plasma: > 99%
[5]; 3 h p.i.
  Activity retained in the kidneys relative to the 1 h p.i.-timepoint: 30%
[5]; 24 h p.i.
  Activity retained in the kidneys relative to the 1 h p.i.-timepoint: < 1%
